Assay [1] in a line: Cytotoxicity against human HONE1 at 10 uM after 3 days by MTS reduction assay. The following applies: HONE1, 72 h. The format is functional.
Another assay has as its system NUGC. As to the kind of experiment: Cytotoxicity against human NUGC at 10 uM after 3 days by MTS reduction assay. Type of assay: functional. The following applies: 72 h. (In general: Formazan colour is commonly taken as a measure of viable cells.)

The structures appear in SMILES notation.

One may read the inhibition as the share of the control response that was lost under treatment. A high value points to a strong effect. `COc1cc2c3c(c4ccc(OC)c(OC)c4c2cc1OC)C[N@@+]1([O-])CCC[C@@H]1C3`: the inhibition at 10 µM in assay [1] was 92%; in the assay with NUGC, 94%.
For the molecule `COc1cc2c3c(c4ccc(OC)c(OC)c4c2cc1OC)C[C@H]1CCC[N@+]1([O-])C3`, the inhibition at 10 µM in assay [1] stood at 87%; in the assay with NUGC, 93%.
For `COc1cc2c3c(c4cc(OC)c(OC)cc4c2cc1OC)CN1CCC[C@@H]1C3` [TYLOPHORINE] the same measures were 80% and 85%.

These data come from ChEMBL document CHEMBL1141750, “Phenanthroindolizidine alkaloids from the stems of Ficus septica” (2005).
